These results are taken from US11453660B2, “Androgen receptor and glucocorticoid receptor modulators” (ONCOSTELLAE, S.L., priority 2017, dated 2022).

Structures are written as SMILES.

For the experiment, the target named is T1, Human Glucocorticoid Receptor (Homo sapiens, UniProt P04150).
T1 construct: endogenous in cells; host or cells: cytosol from IM-9 cell line
T1 sequence (P04150 1-777): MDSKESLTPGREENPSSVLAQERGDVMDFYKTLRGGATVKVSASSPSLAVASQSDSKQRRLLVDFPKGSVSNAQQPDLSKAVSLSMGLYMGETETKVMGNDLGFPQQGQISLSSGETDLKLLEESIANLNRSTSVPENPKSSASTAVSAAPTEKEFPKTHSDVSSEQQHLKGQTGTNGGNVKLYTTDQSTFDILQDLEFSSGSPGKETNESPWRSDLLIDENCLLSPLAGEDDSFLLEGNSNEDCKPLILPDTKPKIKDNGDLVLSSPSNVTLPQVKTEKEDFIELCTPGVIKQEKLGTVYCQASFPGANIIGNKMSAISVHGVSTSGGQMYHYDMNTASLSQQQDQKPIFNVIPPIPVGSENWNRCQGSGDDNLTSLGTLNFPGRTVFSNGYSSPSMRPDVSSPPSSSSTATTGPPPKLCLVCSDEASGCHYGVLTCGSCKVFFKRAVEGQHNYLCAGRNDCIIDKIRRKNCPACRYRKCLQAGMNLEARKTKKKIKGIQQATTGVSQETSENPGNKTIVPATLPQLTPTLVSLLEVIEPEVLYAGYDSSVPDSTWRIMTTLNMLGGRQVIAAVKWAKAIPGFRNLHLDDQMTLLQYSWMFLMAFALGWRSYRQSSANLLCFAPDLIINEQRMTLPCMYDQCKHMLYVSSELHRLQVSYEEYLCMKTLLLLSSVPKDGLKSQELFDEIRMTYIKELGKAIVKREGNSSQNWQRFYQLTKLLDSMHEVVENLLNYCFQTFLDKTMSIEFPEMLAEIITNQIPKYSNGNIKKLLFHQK
Description: Competition Binding in IM-9 Human Glucocorticoid Receptor (GR IM-9). As to conditions: cytosol from IM-9 cell line, 1.5 nM [3H]-Dexamethasone, 4° C. for 6 hours. The method, then:
Competition Binding in IM-9 Human Glucocorticoid Receptor (GR IM-9)
Glucocorticoid receptor competition binding assays were carried out in a polypropilene 96-well plate. In each well was incubated 100 μg of cytosol from IM-9 cell line, 1.5 nM [3H]-Dexamethasone (71 Ci/mmol, 1 mCi/ml, Perkin Elmer NET1192001MC) and compounds studied and standard. Non-specific binding was determined in the presence of Triamcinolone 10 μM (Sigma Aldrich T6376).
The reaction mixture (Vt: 200 μl/well) was incubated at 4° C. for 6 hours, 180 μL was transferred to GF/B 96-well plate (Millipore, Madrid, Spain) pretreated with 0.5% of PEI and treated with binding buffer (TES 10 mM, sodium molybdate 10 mM, EDTA 1 mM, pH 7.4, 2-mercaptoethanol 20 mM, Glycerol 10%) after was filtered and washed six times with 250 μl wash buffer (TES 10 mM, sodium molybdate 10 mM, EDTA 1 mM, pH 7.4, 2-mercaptoethanol 20 mM Glycerol 10%), before measuring in a microplate beta scintillation counter (Microbeta Trilux, PerkinElmer, Madrid, Spain).
As to `COC(=O)C1=C(N)NC(C)=C(C(C)=O)C1c1csc2ncc(F)cc12` (centres unmarked) [Example D14, Methyl 5-acetyl-2-amino-4-(5-fluorothieno[2,3-b]pyridin-3-yl)-6-methyl-1,4-dihydropyridine-3-carboxylate], the IC50 is at least 1000 nM.
The value for `COC(=O)C1=C(C2CC2)NC(C)=C(C(C)=O)C1c1csc2c(-c3ccncc3)cccc12` (centres unmarked) [Example L13, Methyl 5-acetyl-2-cyclopropyl-6-methyl-4-(7-(pyridin-4-yl)benzo[b]thiophen-3-yl)-1,4-dihydropyridine-3-carboxylate] was 100 to 1000 nM.
Regarding `CC(=O)C1=C(C)NC(N)=C(C(=O)OC2CCCC2)C1c1csc2c(C#N)cccc12` (centres unmarked) [Example D8, Cyclopentyl 5-acetyl-2-amino-4-(7-cyanobenzo[b]thiophen-3-yl)-6-methyl-1,4-dihydropyridine-3-carboxylate], the IC50 is under 100 nM.
For `CC(=O)C1=C(C)NC(C)=C(C(=O)OC(C)(C)c2ccc(F)cc2)C1c1csc2ncccc12` (centres unmarked) [Example C95, 2-(4-fluorophenyl)propan-2-yl 5-acetyl-2,6-dimethyl-4-(thieno[2,3-b]pyridin-3-yl)-1,4-dihydropyridine-3-carboxylate], the IC50 was under 100 nM.
Compound `COC(=O)C1=C(C)NC(C2CC2)=C(C(=O)OC)C1c1csc2c(C#N)cccc12` (centres unmarked) [Example C103, Dimethyl 4-(7-cyanobenzo[b]thiophen-3-yl)-2-cyclopropyl-6-methyl-1,4-dihydropyridine-3,5-dicarboxylate] returned an IC50 of under 100 nM.
As to `COC(=O)C1=C(C2CCCCC2)NC(C)=C(C(C)=O)C1c1csc2c(Br)cccc12` (centres unmarked) [Example C106, Methyl 5-acetyl-4-(7-bromobenzo[b]thiophen-3-yl)-2-cyclohexyl-6-methyl-1,4-dihydropyridine-3-carboxylate], the IC50 fell in the range of 100 to 1000 nM.
In turn, `CC1=C(C#N)C(c2csc3c(C#N)cccc23)C(C(=O)OCC2CC2)=C(C2CC2)N1` (centres unmarked) [Example C111, Cyclopropylmethyl 5-cyano-4-(7-cyanobenzo[b]thiophen-3-yl)-2-cyclopropyl-6-methyl-1,4-dihydropyridine-3-carboxylate] showed an IC50 of under 100 nM.
In the case of `CC(=O)C1=C(C)NC(N)=C(C(=O)OCC2CCCC2)C1c1csc2c(C#N)cccc12` (centres unmarked) [Example D16, Cyclopentylmethyl 5-acetyl-2-amino-4-(7-cyanobenzo[b]thiophen-3-yl)-6-methyl-1,4-dihydropyridine-3-carboxylate], the IC50 was under 100 nM.
On to `COC(=O)C1=C(C2CC2)NC(C)=C(C(C)=O)C1c1csc2c(F)cccc12` (centres unmarked) [Example C98, Methyl 5-acetyl-2-cyclopropyl-4-(7-fluorobenzo[b]thiophen-3-yl)-6-methyl-1,4-dihydropyridine-3-carboxylate], for which the IC50 was 100 to 1000 nM.
Compound `CC(=O)C1=C(C)NC(C)=C(C(=O)OCc2ccncc2F)C1c1csc2ncccc12` (centres unmarked) [Example C68, (3-fluoropyridin-4-yl)methyl 5-acetyl-2,6-dimethyl-4-(thieno[2,3-b]pyridin-3-yl)-1,4-dihydropyridine-3-carboxylate] had an IC50 of at least 1000 nM.
The same measure for `COC(=O)C1=C(COCCN)NC(C)=C(C(C)=O)C1c1csc2c(C#N)cccc12` (centres unmarked) [Example C116, Methyl 5-acetyl-2-((2-aminoethoxy)methyl)-4-(7-cyanobenzo[b]thiophen-3-yl)-6-methyl-1,4-dihydropyridine-3-carboxylate]: 100 to 1000 nM; for `COC(=O)C1=C(C2CC2)NC(N)=C(C(=O)OCC2CC2)C1c1csc2c(C#N)cccc12` (centres unmarked) [Example D19, 3-(cyclopropylmethyl) 5-methyl 2-amino-4-(7-cyanobenzo[b]thiophen-3-yl)-6-cyclopropyl-1,4-dihydropyridine-3,5-dicarboxylate]: under 100 nM.
Consider `CC(=O)C1=C(C)NC(N)=C(C(=O)OCC2CC2)C1c1csc2cc(C#N)ccc12` (centres unmarked) [Example D28, Cyclopropylmethyl 5-acetyl-2-amino-4-(6-cyanobenzo[b]thiophen-3-yl)-6-methyl-1,4-dihydropyridine-3-carboxylate], for which the IC50 is 100 to 1000 nM.
In turn, `COC(=O)C1=C(C)NC(N)=C(C(=O)OCC2CC2)C1c1csc2c(C#N)c(C(F)(F)F)ccc12` (centres unmarked) [Example D54, 3-(Cyclopropylmethyl) 5-methyl 2-amino-4-(7-cyano-6-(trifluoromethyl)benzo[b]thiophen-3-yl)-6-methyl-1,4-dihydropyridine-3,5-dicarboxylate] showed an IC50 of under 100 nM.
Turning to `CC(=O)C1=C(C)NC(C2CC2)=C(C(=O)OC(C)(C)c2ccc(F)cc2)C1c1csc2ncccc12` (centres unmarked) [Example C97, 2-(4-fluorophenyl)propan-2-yl 5-acetyl-2-cyclopropyl-6-methyl-4-(thieno[2,3-b]pyridin-3-yl)-1,4-dihydropyridine-3-carboxylate], the IC50 is under 100 nM.
On to `COC(=O)C1=C(C)NC(N)=C(C(=O)OCC2CC2)C1c1csc2c(C#N)ccnc12` (centres unmarked) [Example D44, 3-(Cyclopropylmethyl) 5-methyl 2-amino-4-(7-cyanothieno[3,2-b]pyridin-3-yl)-6-methyl-1,4-dihydropyridine-3,5-dicarboxylate], for which the IC50 is under 100 nM.
Consider `COC(=O)C1=C(C)NC(N)=C(C(=O)OCC2CC2)C1c1csc2c(C#N)cc(C#N)cc12` (centres unmarked) [Example D48, 3-(Cyclopropylmethyl) 5-methyl 2-amino-4-(5,7-dicyanobenzo[b]thiophen-3-yl)-6-methyl-1,4-dihydropyridine-3,5-dicarboxylate], for which the IC50 is under 100 nM.
The compound `CC(=O)C1=C(C)NC(N)=C(C(=O)OC2CCC(F)(F)CC2)C1c1csc2c(C#N)cccc12` (centres unmarked) [Example D11, 4,4-difluorocyclohexyl 5-acetyl-2-amino-4-(7-cyanobenzo[b]thiophen-3-yl)-6-methyl-1,4-dihydropyridine-3-carboxylate] had an IC50 of under 100 nM.
On to `COC(=O)C1=C(C)NC(N)=C(C(=O)OCC2CC2)C1c1csc2c(C#N)c(Cl)ccc12` (centres unmarked) [Example D52, 3-(Cyclopropylmethyl) 5-methyl 2-amino-4-(6-chloro-7-cyanobenzo[b]thiophen-3-yl)-6-methyl-1,4-dihydropyridine-3,5-dicarboxylate], for which the IC50 was under 100 nM.
Consider `CC(=O)C1=C(C)NC(C)=C(C(=O)OC(C)(C)c2ccccc2)C1c1csc2c(Br)cccc12` (centres unmarked) [Example C86, 2-phenylpropan-2-yl 5-acetyl-4-(7-bromobenzo[b]thiophen-3-yl)-2,6-dimethyl-1,4-dihydropyridine-3-carboxylate], for which the IC50 lay within 100 to 1000 nM.
`COC(=O)C1=C(N)NC(C)=C(C(C)=O)C1c1csc2c(C#N)cccc12` (centres unmarked) [Example D5, Methyl 5-acetyl-2-amino-4-(7-cyanobenzo[b]thiophen-3-yl)-6-methyl-1,4-dihydropyridine-3-carboxylate]: the IC50 was under 100 nM.
Compound `COC(=O)C1=C(C)NC(N)=C(C(=O)OCC2CC2)C1c1csc2c(C#N)cccc12` (centres unmarked) [Example D17, 3-(cyclopropylmethyl) 5-methyl 2-amino-4-(7-cyanobenzo[b]thiophen-3-yl)-6-methyl-1,4-dihydropyridine-3,5-dicarboxylate] returned an IC50 of under 100 nM.
In the case of `CC(=O)C1=C(C)NC(C2CC2)=C(C(=O)OCC2CC2)C1c1csc2c(Br)cccc12` (centres unmarked) [Example C84, Cyclopropylmethyl 5-acetyl-4-(7-bromobenzo[b]thiophen-3-yl)-2-cyclopropyl-6-methyl-1,4-dihydropyridine-3-carboxylate], the IC50 is under 100 nM.
`CC(=O)C1=C(C)NC(C2CC2)=C(C(=O)OCC2CC2)C1c1csc2ncccc12` (centres unmarked) [Example C99, Cyclopropylmethyl 5-acetyl-2-cyclopropyl-6-methyl-4-(thieno[2,3-b]pyridin-3-yl)-1,4-dihydropyridine-3-carboxylate] displayed an IC50 of 100 to 1000 nM.
With `CC(=O)C1=C(C)NC(C2CC2)=C(C(=O)OC2COC2)C1c1csc2c(Br)cccc12` (centres unmarked) [Example C81, Oxetan-3-yl 5-acetyl-4-(7-bromobenzo[b]thiophen-3-yl)-2-cyclopropyl-6-methyl-1,4-dihydropyridine-3-carboxylate], the IC50 is under 100 nM.
Take `COC(=O)C1=C(C)NC(N)=C(C(=O)OCC(F)(F)F)C1c1csc2c(C#N)cccc12` (centres unmarked) [Example D50, 5-Methyl 3-(2,2,2-trifluoroethyl) 2-amino-4-(7-cyanobenzo[b]thiophen-3-yl)-6-methyl-1,4-dihydropyridine-3,5-dicarboxylate]: the IC50 was under 100 nM.

Broadly, the IC50 is the concentration that inhibits the measured activity by half. A higher IC50 goes with a need for much substance.
